Values joined by “and” are separate entries in the source; they are usually repeats but may differ in a detail not shown here. Identical values can stand only once.
What was measured:
Format in all cases: in vivo
[1] = system: Avena fatua; assay: greenhouse pre-emergence treatment, AVEFA; conditions: AVEFA
In short: (§1)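 Pre-emergence spray of compounds, alone or as combinations formulated as 10% emulsion concentrate in water, directly after sowing in loamy sand (~3.0% humus); pots hooded until rooting, kept at 10-25° C or 20-35° C per species for 2 to 4 weeks. Damage scored 0-100 (100 = no emergence/complete destruction); Colby expected value E=X+Y−(X·Y/100).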

[2] = system: Ambrosia elatior; assay: greenhouse pre-emergence treatment, AMBEL; conditions: AMBEL
In short: as §1

[3] = system: Poa annua; assay: greenhouse post-emergence treatment, POAAN; conditions: POAAN
In short: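 Greenhouse; post-emergence spray at 3–15 cm; aqueous EC formulation; 2–4 weeks; 0–100 visual score.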

[4] = system: Alopecurus myosuroides; assay: greenhouse post-emergence treatment, ALOMY; conditions: ALOMY
In short: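 Scoring used a 0 to 100 scale, with 100 denoting no emergence or full destruction of at least the above-ground parts, recorded within a 2 to 4 week test period. Test plants grew in loamy sand containing about 3.0% humus at 10-25° C. or 20-35° C., after direct sowing or transplanting, and received water-based treatments post-emergence.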

[5] = system: Papaver rhoeas; assay: greenhouse post-emergence treatment, PAPRH; conditions: PAPRH
In short: (§2)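 Post-emergence greenhouse spray on 3–15 cm plants, sown direct or transplanted a few days before treatment. Scored visually on a 0–100 scale after 2 to 4 weeks; expected additive effect computed by Colby: E=X+Y−(X·Y/100).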

[6] = system: Matricaria chamomilla; assay: greenhouse post-emergence treatment, MATCH; conditions: 20 DAT, MATCH
In short: as §2

[7] = Ex. 5 solo, 62.5 gai/ha, 20 DAT

SMILES: O=C(O)c1nc(C2CC2)ncc1-c1ccccc1Cl [Ex. 5]
- % activity, solo application ([1]; 250 gai/ha, 20 DAT, Table X1): 90%
- % activity ([1]; 20 DAT, solo Ex. 5 62.5 gai/ha): 75%
- % activity ([1]; solo Ex. 5 125 gai/ha, 20 DAT): 90%
- % activity [1, 7]: 75%
- % activity ([1]; Ex. 5 solo, 125 gai/ha, 20 DAT): 90%
- % activity ([1]; Table X9, 21 DAT, solo Ex. 5 250 gai/ha): 90%
- % activity ([1]; Table X13, 20 DAT, solo Ex. 5 31.25 gai/ha): 65%
- % activity ([1]; Table X13, 20 DAT, solo Ex. 5 62.5 gai/ha): 80%
- % activity ([1]; Table X13, 20 DAT, solo Ex. 5 125 gai/ha): 85%
- % activity, solo application ([2]; 31.25 gai/ha, 20 DAT, Table X1): 30%
- % activity, solo application ([2]; 62.5 gai/ha, 20 DAT, Table X1): 45%
- % activity, solo application ([2]; 62.5 gai/ha, 20 DAT, Table X2): 0%
- % activity, solo application ([2]; 62.5 gai/ha, 20 DAT, Table X6): 0%
- % activity, solo application ([2]; 250 gai/ha, 20 DAT, Table X1): 98%
- % activity ([2]; 20 DAT, solo Ex. 5 31.25 gai/ha): 10%
- % activity ([2]; 20 DAT, solo Ex. 5 31.25 gai/ha (Table X70)): 20%
- % activity ([2]; 20 DAT, solo Ex. 5 62.5 gai/ha): 70%
- % activity ([2]; 20 DAT, solo Ex. 5 125 gai/ha): 85%
- % activity [2, 7]: 70%
- % activity ([2]; Table X10, 20 DAT, solo Ex. 5 31.25 gai/ha): 30%
- % activity ([2]; Table X10, 20 DAT, solo Ex. 5 62.5 gai/ha): 45%
- % activity ([2]; Table X11, 20 DAT, solo Ex. 5 62.5 gai/ha): 45%
- % activity ([2]; solo, 62.5 gai/ha, 20 DAT): 70%
- % activity ([2]; solo, 125 gai/ha, 21 DAT): 70%
- % activity ([3]; solo Ex. 5 62.5 gai/ha, 20 DAT): 80%
- % activity ([3]; solo Ex. 5 125 gai/ha, 20 DAT): 80%
- % activity ([3]; solo Ex. 5 125 gai/ha, 21 DAT): 85%
- % activity ([3]; solo Ex. 5 250 gai/ha, 21 DAT): 85%
- % activity ([3]; Table X8, 20 DAT, solo Ex. 5 125 gai/ha): 90%
- % activity ([3]; Table X8, 20 DAT, solo Ex. 5 250 gai/ha): 90%
- % activity ([3]; solo, 62.5 gai/ha, 20 DAT): 85%
- % activity ([3]; solo, 125 gai/ha, 20 DAT): 85%
- % activity ([3]; solo, 250 gai/ha, 20 DAT): 85%
- % activity, solo application ([4]; 62.5 gai/ha, 20 DAT, Table X3): 75%
- % activity, solo application ([4]; 125 gai/ha, 20 DAT, Table X7): 80%
- % activity, solo application ([4]; 250 gai/ha, 20 DAT, Table X5): 85%
- % activity, solo application ([4]; 250 gai/ha, 20 DAT, Table X7): 75%
- % activity ([4]; solo Ex. 5 15 gai/ha, 20 DAT, 2nd series of rows): 80%
- % activity ([4]; solo Ex. 5 62.5 gai/ha, 20 DAT): 70% and 68%
- % activity ([4]; solo Ex. 5 62.5 gai/ha, 20 DAT, 2nd series of rows): 70%
- % activity ([4]; solo Ex. 5 125 gai/ha, 20 DAT): 70%
- % activity ([4]; solo Ex. 5 250 gai/ha, 20 DAT): 73%
- % activity ([4]; solo Ex. 5 250 gai/ha, 20 DAT, 2nd series of rows): 80%
- % activity ([4]; solo Ex. 5 250 gai/ha, 21 DAT): 80%
- % activity ([4]; solo Ex. 5 500 gai/ha, 20 DAT): 78%
- % activity ([4]; solo Ex. 5 500 gai/ha, 20 DAT, 2nd series of rows): 80%
- % activity ([4]; Table X12, 20 DAT, solo Ex. 5 31.25 gai/ha): 70%
- % activity ([4]; Table X12, 20 DAT, solo Ex. 5 62.5 gai/ha): 70%
- % activity ([4]; Table X12, 20 DAT, solo Ex. 5 125 gai/ha): 80%
- % activity ([4]; solo, 62.5 gai/ha, 20 DAT): 75%
- % activity ([4]; solo, 125 gai/ha, 20 DAT): 80% and 75%
- % activity ([4]; solo, 250 gai/ha, 20 DAT): 80%
- % activity, solo application ([5]; 62.5 gai/ha, 20 DAT, Table X3): 20%
- % activity, solo application ([5]; 125 gai/ha, 20 DAT, Table X3): 75%
- % activity, solo application ([5]; 125 gai/ha, 20 DAT, Table X4): 5%
- % activity, solo application ([5]; 125 gai/ha, 20 DAT, Table X5): 30%
- % activity [5, 7]: 25%
- % activity ([5]; Ex. 5 solo, 62.5 gai/ha, 21 DAT): 60%
- % activity ([5]; 20 DAT, solo Ex. 5 62.5 gai/ha): 70%
- % activity ([5]; 20 DAT, solo Ex. 5 125 gai/ha): 65%
- % activity ([5]; 20 DAT, solo Ex. 5 125 gai/ha (Table X66)): 65%
- % activity ([5]; 21 DAT, solo Ex. 5 125 gai/ha): 60%
- % activity ([5]; 21 DAT, solo Ex. 5 250 gai/ha): 80%
- % activity ([5]; solo Ex. 5 62.5 gai/ha, 20 DAT): 0%
- % activity ([5]; solo Ex. 5 62.5 gai/ha, 21 DAT): 0%
- % activity ([5]; solo Ex. 5 125 gai/ha, 21 DAT): 10%
- % activity ([5]; solo Ex. 5 250 gai/ha, 20 DAT): 65%
- % activity ([5]; solo Ex. 5 250 gai/ha, 21 DAT): 65%
- % activity ([5]; solo, 250 gai/ha, 20 DAT): 70% and 75%
- % activity, solo application ([6]; 62.5 gai/ha, Table X3): 30%
- % activity, solo application ([6]; 125 gai/ha, Table X3): 30%
- % activity, solo application ([6]; 125 gai/ha, Table X4): 40%
- % activity, solo application ([6]; 125 gai/ha, Table X5): 10%
- % activity, solo application ([6]; 125 gai/ha, Table X7): 30%
- % activity, solo application ([6]; 250 gai/ha, Table X3): 70%
- % activity, solo application ([6]; 250 gai/ha, Table X4): 40%
